Here are results for one compound from PMC9401498 (Clinical Cancer Research, 2021).

Data set [1] is described as follows: Plasma pharmacokinetics of telaglenastat. Type of data set: in vivo, human.
For data set [2], the system named is advanced and/or treatment-refractory solid tumors. As to the kind of experiment: Antitumor activity by RECIST v1.1, all solid tumors. Type of data set: in vivo, human.
Data set [3] deals with tumor cell lines. Conditions: preclinical, several tumor cell lines; cited from earlier work.
Data set [4] concerns solid tumor xenograft mouse models. Conditions: preclinical, e.g., RCC, NSCLC, TNBC, hematologic malignancies; alone and in combination; cited from earlier work.
[5] abbreviates: All dose expansion (N = 58), number (percent) of efficacy evaluable patients.

Consider `O=C(Cc1cccc(OC(F)(F)F)c1)Nc1ccc(CCCCc2nnc(NC(=O)Cc3ccccn3)s2)nn1` [telaglenastat, Telaglenastat], for which the Cmin in data set [1] (RCC patient with PR (800 mg BID)) is recorded as 1,490 ng/mL. Also, the half-life in data set [1] (human, in vivo, 600 mg) is 3.73 h. Moreover, in data set [1] (human, in vivo, 800 mg), the AUC came out at 19900 ng·h/mL. The same compound displayed an AUC(0-t) in data set [1] (human, in vivo, 800 mg, AUC0–8h, steady state C1D15, 800 mg BID-fed (n = 10), mean (CV%)) of 9660 ng·h/mL. In data set [1] (human, in vivo, 800 mg, C max, steady state C1D15, 800 mg BID-fed (n = 10), mean (CV%)), this compound had a Cmax of 1770 ng/mL. This compound yielded a concentration at 15 day of cycle 1 in data set [1] (human, in vivo, 800 mg, C min, steady state C1D15, 800 mg BID-fed (n = 10), median (range)) of 443 ng/mL. In addition, the maximum concentration (Cmax) in data set [1] (human, in vivo, 800 mg, Cmax, RCC patient with PR (800 mg BID)) was 2960 ng/mL. Besides, the time to peak (Tmax) in data set [1] (human, in vivo, 800 mg, t max, steady state C1D15, 800 mg BID-fed (n = 10), (range)) was determined as 4 h. Further, the C min in data set [1] (steady state C1D15, 1,000 mg BID-fed (n = 4), median (range)) is reported as 147 (73.2–221) ng/mL. Also, in data set [2] (setting [5]), the “Best overall response: Partial response” value was 1 (1.7), the “Best overall response: Progressive disease” value is on record as 33 (56.9) and the “Best overall response: Stable disease” value was 24 (41.4). Further, the objective responses result in data set [2] (BID or TID dose escalation cohorts) was “No objective responses”. Moreover, the “patients with time on study ≥6 months” value in data set [2] (SDs across different tumor types) stood at 12 patients. For the same compound, the “patients with PR” value in data set [2] (dose expansion (in an RCC patient)) is 1/58. For the same compound, in data set [2] (dose expansion, 24/58), the “patients with SD” value is 41.4%. Moreover, the “patients with PD” value in data set [2] (dose expansion, 33/58) is given as 56.9%. In addition, the antiproliferative activity entry in data set [3] is “cytostatic and cytotoxic antiproliferative activity”. Also, the “effect on tumor growth” value in data set [4] was “cytostatic-suppressive effects against tumor growth”.
